Measured values as given in the NIST ThermoML archive (doi:10.1021/je100381g).
Numbers after ± are expanded uncertainties.

Details: Fluid (supercritical or subcritical phases)

N#N [nitrogen]
mass density (265 K, 967 kPa): 12.355 ± 0.001 kg/m3 | mass density (265 K, 1937 kPa): 24.865 ± 0.002 kg/m3 | mass density (265 K, 3929 kPa): 50.84 ± 0.002 kg/m3 | mass density (265 K, 5996 kPa): 77.972 ± 0.003 kg/m3 | mass density (265 K, 7985 kPa): 104.063 ± 0.004 kg/m3 | mass density (265 K, 9835 kPa): 128.039 ± 0.004 kg/m3 | mass density (265 K, 15014 kPa): 192.346 ± 0.006 kg/m3 | mass density (265 K, 20022 kPa): 248.359 ± 0.008 kg/m3 | mass density (265 K, 25019 kPa): 297.183 ± 0.009 kg/m3 | mass density (265 K, 30006 kPa): 339.165 ± 0.011 kg/m3 | mass density (265 K, 35119 kPa): 376.198 ± 0.012 kg/m3 | mass density (265 K, 50041 kPa): 459.104 ± 0.014 kg/m3 | mass density (265 K, 74887 kPa): 549.76 ± 0.017 kg/m3 | mass density (265 K, 100559 kPa): 613.291 ± 0.019 kg/m3 | mass density (293 K, 965 kPa): 11.119 ± 0.001 kg/m3 | mass density (293 K, 1933 kPa): 22.306 ± 0.002 kg/m3 | mass density (293 K, 3923 kPa): 45.361 ± 0.002 kg/m3 | mass density (293 K, 5988 kPa): 69.244 ± 0.003 kg/m3 | mass density (293 K, 7971 kPa): 91.982 ± 0.003 kg/m3 | mass density (293 K, 9822 kPa): 112.91 ± 0.004 kg/m3 | mass density (293 K, 14872 kPa): 167.663 ± 0.006 kg/m3 | mass density (293 K, 19976 kPa): 218.428 ± 0.007 kg/m3 | mass density (293 K, 24948 kPa): 262.722 ± 0.008 kg/m3 | mass density (293 K, 29965 kPa): 302.337 ± 0.01 kg/m3 | mass density (293 K, 34993 kPa): 337.389 ± 0.011 kg/m3 | mass density (293 K, 39916 kPa): 367.801 ± 0.011 kg/m3 | mass density (293 K, 50130 kPa): 421 ± 0.013 kg/m3 | mass density (293 K, 74957 kPa): 513.932 ± 0.016 kg/m3 | mass density (293 K, 99903 kPa): 578.472 ± 0.018 kg/m3 | mass density (293 K, 125585 kPa): 628.863 ± 0.019 kg/m3 | mass density (293 K, 150976 kPa): 668.88 ± 0.02 kg/m3 | mass density (298.15 K, 10005 kPa): 112.564 ± 0.004 kg/m3 | mass density (298.15 K, 30026 kPa): 296.94 ± 0.009 kg/m3 | mass density (298.15 K, 49844 kPa): 413.221 ± 0.013 kg/m3 | mass density (298.15 K, 74988 kPa): 507.852 ± 0.016 kg/m3 | mass density (298.15 K, 100175 kPa): 573.318 ± 0.018 kg/m3 | mass density (298.15 K, 124825 kPa): 622.069 ± 0.019 kg/m3 | mass density (298.15 K, 151239 kPa): 664.101 ± 0.02 kg/m3 | mass density (350 K, 2974 kPa): 28.486 ± 0.002 kg/m3 | mass density (350 K, 4917 kPa): 46.878 ± 0.002 kg/m3 | mass density (350 K, 5971 kPa): 56.772 ± 0.002 kg/m3 | mass density (350 K, 7481 kPa): 70.762 ± 0.003 kg/m3 | mass density (350 K, 9976 kPa): 93.531 ± 0.003 kg/m3 | mass density (350 K, 13786 kPa): 127.029 ± 0.004 kg/m3 | mass density (350 K, 17230 kPa): 155.891 ± 0.005 kg/m3 | mass density (350 K, 20677 kPa): 183.287 ± 0.006 kg/m3 | mass density (350 K, 24132 kPa): 209.197 ± 0.007 kg/m3 | mass density (350 K, 27582 kPa): 233.51 ± 0.008 kg/m3 | mass density (350 K, 29848 kPa): 248.687 ± 0.008 kg/m3 | mass density (350 K, 34691 kPa): 279.018 ± 0.009 kg/m3 | mass density (350 K, 49978 kPa): 358.872 ± 0.011 kg/m3 | mass density (350 K, 74999 kPa): 452.98 ± 0.014 kg/m3 | mass density (350 K, 99994 kPa): 520.331 ± 0.016 kg/m3 | mass density (350 K, 124395 kPa): 571.157 ± 0.018 kg/m3 | mass density (350 K, 150364 kPa): 614.997 ± 0.019 kg/m3 | mass density (400 K, 1004 kPa): 8.432 ± 0.001 kg/m3 | mass density (400 K, 1999 kPa): 16.747 ± 0.002 kg/m3 | mass density (400 K, 2999 kPa): 25.04 ± 0.002 kg/m3 | mass density (400 K, 4000 kPa): 33.281 ± 0.002 kg/m3 | mass density (400 K, 5001 kPa): 41.463 ± 0.002 kg/m3 | mass density (400 K, 7000 kPa): 57.573 ± 0.002 kg/m3 | mass density (400 K, 8004 kPa): 65.564 ± 0.003 kg/m3 | mass density (400 K, 10000 kPa): 81.202 ± 0.003 kg/m3 | mass density (400 K, 14997 kPa): 118.841 ± 0.004 kg/m3 | mass density (400 K, 19991 kPa): 154.143 ± 0.005 kg/m3 | mass density (400 K, 24998 kPa): 187.116 ± 0.006 kg/m3 | mass density (400 K, 29991 kPa): 217.621 ± 0.007 kg/m3 | mass density (400 K, 35015 kPa): 246.029 ± 0.008 kg/m3 | mass density (400 K, 40004 kPa): 272.126 ± 0.009 kg/m3 | mass density (400 K, 49964 kPa): 318.659 ± 0.01 kg/m3 | mass density (400 K, 59948 kPa): 358.969 ± 0.011 kg/m3 | mass density (400 K, 69931 kPa): 394.143 ± 0.012 kg/m3 | mass density (400 K, 79958 kPa): 425.322 ± 0.013 kg/m3 | mass density (400 K, 89963 kPa): 453.061 ± 0.014 kg/m3 | mass density (400 K, 99951 kPa): 477.982 ± 0.015 kg/m3 | mass density (400 K, 110031 kPa): 500.804 ± 0.015 kg/m3 | mass density (400 K, 120573 kPa): 522.585 ± 0.016 kg/m3
